Experimental data as given in the NIST ThermoML archive (doi:10.1021/acs.jced.9b00057).
Numbers after ± are expanded uncertainties.

Experiment: wn = mass fraction of the nth substance listed
Settings: 298 K, 100 kPa, Liquid; for mass density: Vibrating tube method

Compound: CCCC(=O)O [butanoic acid] + O
- mass density (w1 = 6.86e-05): 997.07 ± 10 kg/m3
- mass density (w1 = 0.000154): 997.07 ± 10 kg/m3
- mass density (w1 = 0.000352): 997.09 ± 10 kg/m3
- mass density (w1 = 0.000628): 997.08 ± 10 kg/m3
- mass density (w1 = 0.000783): 997.12 ± 10 kg/m3
- mass density (w1 = 0.00206): 997.2 ± 10 kg/m3
- mass density (w1 = 0.0023): 997.22 ± 10 kg/m3
- mass density (w1 = 0.00429): 997.33 ± 10 kg/m3
- mass density (w1 = 0.00704): 997.57 ± 10 kg/m3
- mass density (w1 = 0.00763): 997.62 ± 10 kg/m3
- mass density (w1 = 0.0151): 998.25 ± 10 kg/m3
- mass density (w1 = 0.0157): 998.3 ± 10 kg/m3
- mass density (w1 = 0.0285): 999.62 ± 10 kg/m3
- mass density (w1 = 0.0453): 1001.89 ± 10 kg/m3
- mass density (w1 = 0.0508): 1002.79 ± 10 kg/m3
- mass density (w1 = 0.0589): 1004.25 ± 10 kg/m3
- mass density (w1 = 0.073): 1000.5 ± 10 kg/m3
- mass density (w1 = 0.087): 1001.01 ± 10 kg/m3
- mass density (w1 = 0.0974): 1014.17 ± 10 kg/m3

Compound: CCCCCCCCCC(=O)[O-].CCCCCCCCCCCCCC[P+](CCCCCC)(CCCCCC)CCCCCC [trihexyltetradecylphosphonium decanoate] + O
- viscosity (Cone and plate viscometry, w2 = 0.162): 96.1 ± 10 mPa·s
- mass density (w2 = 0.162): 900 ± 9 kg/m3
